Measured values published in US10874675B2, “Pteridine dione monocarboxylate transporter inhibitors” (The Scripps Research Institute, priority 2015, dated 2020).

What was measured:
[1] = test system: Raji (Burkitt's) lymphoma cells; test: MTT assay for 4-day viability of Raji (Burkitt's) lymphoma cells; assay type: cell-based; conditions: Homo sapiens, 96 h, Raji cells (highly express MCT1), estimated values, read-out: approximate potency (EC50 nM)
Excerpt: Specific Examples of compounds of the invention, with estimated EC50 values determined using an MTT assay for 4-day viability of Raji (Burkitt's) lymphoma cells, a cell line known to highly express MCT1 and to be sensitive to small molecule MCT inhibitors,^4 are shown in Table 3. Assay protocols follow those described in the literature.^4 Other assays that are not described here but that are standard in the field, such as an assay for competitive inhibition of transport of radiolabeled lactic acid, an MCT substrate, may also be useful in establishing mechanism of action of these compounds.

T47D tumor cells = test: Mouse xenograft experiment using T47D tumor cells; assay type: in vivo, mice; conditions: 30 mg/kg daily
Protocol: (§1) The in vivo effects of a few selected agents have been evaluated in mouse xenograft models and found to be effective. Protocols follow those described in the literature.^4
(§2) Mice were transplanted with cultured tumor cells and after an incubation period (typically 8-12 days), mice were left untreated or were treated daily with a 30 mg/kg dose of the test compound. Tumor volumes were measured with calipers over […] of treatment. Tumors were excised and weighed at the end of treatment. In some experiments the mice were co-treated daily with a 30 mg/kg dose of the test compound and 5 mg/kg of metformin.

[2] = test system: Raji Burkitt lymphoma cells; test: Xenograft of tumors derived from Raji Burkitt lymphoma cells in nude mice; assay type: in vivo; conditions: versus vehicle
Protocol: as §1, §2
In a separate experiment, this same compound was used in a study using implanted tumors derived from Raji Burkitt lymphoma cells, implanted into nude mice and treated as before with vehicle, with SR-11431, or with SR-11431 plus metformin.

- EC50 [1]: < 50 nM
SMILES: CC(C)Cn1c(=O)n(C)c(=O)c2nc(CCCCCO)c(COc3cccc4cnccc34)nc21 [Example 3, 6-(5-hydroxypentyl)-1-isobutyl-7-((isoquinolin-5-yloxy)methyl)-3-methylpteridine-2,4(1H,3H)-dione]
- tumor volume (T47D tumor cells; versus vehicle): significant reduction of tumor volume
- final tumor mass (T47D tumor cells; versus vehicle treated animals, end of treatment): reduction in final tumor mass
- tumor volume over time ([2]; 30 mg/kg daily (co-treatment: plus 5 mg/kg metformin), 30-day time course): Reduction of tumor volume over time
- final tumor weight ([2]; end of treatment (day 32)): not significantly changed
